The target of the assay is Human DAAO enzyme (Homo sapiens, UniProt P14920). In words: In Vitro DAAO Enzyme Assay (Amplex Red detection of H2O2 from D-Serine). Type of assay: biochemical. Particulars: inhibition of DAAO activity in the presence of 10 mM D-Serine; 60 minutes at 25° C.; ten point dose-response. The method, then: The Km of D-Serine was measured for each enzyme batch to maintain consistency; this Km was used in subsequent assays.
On the day of the assay compounds were serially diluted in DMSO before being diluted 1:20 with assay buffer (20 mM Tris ph 7.4). […] Finally 5 μl ‘Amplex’ red reagent (Invitrogen) was added to all wells as per manufacturer's protocol. The plate was incubated for 60 minutes in the dark at 25° C. and the fluorescence in each well was measured in the Envision plate reader.
Concentration response curves were generated using the average of duplicate wells for each data point and analyzed using non-linear regression and four parameter curve fit.

For two compounds, IC50 results are on record in patent publication US20130052281A1, “NOVEL COMPOUNDS” (Takeda Pharmaceutical Company Limited, priority 2011, published 2013).

For orientation: pIC50 means the negative decadic logarithm of the IC50, by convention in mol/L.

The structures appear in SMILES notation. pIC50: −log10 of the molar value.

Chain of Human DAAO enzyme (P14920 whole entry): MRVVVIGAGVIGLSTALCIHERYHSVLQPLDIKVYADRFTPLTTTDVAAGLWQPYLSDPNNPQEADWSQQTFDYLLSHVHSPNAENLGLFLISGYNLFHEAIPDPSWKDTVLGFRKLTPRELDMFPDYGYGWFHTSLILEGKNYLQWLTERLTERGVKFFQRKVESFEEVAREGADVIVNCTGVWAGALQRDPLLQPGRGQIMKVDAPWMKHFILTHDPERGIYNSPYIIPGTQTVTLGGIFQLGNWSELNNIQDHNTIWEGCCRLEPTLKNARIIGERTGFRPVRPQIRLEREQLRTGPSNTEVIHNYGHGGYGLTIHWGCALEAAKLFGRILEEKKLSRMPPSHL

Take `O=c1[nH]nc(CCc2cncc(C(F)(F)F)c2)cc1O` [Example 12, 4-Hydroxy-6-{2-[5-(trifluoromethyl)pyridin-3-yl]ethyl}pyridazin-3(2H)-one]: the pIC50 is 7.64.
The figure for `O=c1[nH]nc(CCc2cccc(OC(F)(F)F)c2)cc1O` [Example 10, 4-Hydroxy-6-{2-[3-(trifluoromethoxy)phenyl]ethyl}pyridazin-3(2H)-one] is 7.66.
